Measurements from ChEMBL document CHEMBL1131395, “Novel antineoplastic agents with efficacy against multidrug resistant tumor cells” (1998).

Legend:
Assay type in all cases: functional
P388/ADR = test: Compound was tested in vitro for growth inhibition of murine leukemic P388/ADR cells that exhibit MDR phenotype.; settings: Mus musculus
NCI/ADR-RES = test: Compound was tested in vitro for growth inhibition of MCF-7/ADR cells that exhibit MDR phenotype.; settings: Homo sapiens
P388 = test: Compound was tested in vitro for growth inhibition of murine leukemic P388 cells; settings: Mus musculus
MCF7 = test: Compound was tested in vitro for growth inhibition of MCF-7 cells derived from human breast tumor.
SK-MEL-5 = test: Compound was tested in vitro for growth inhibition of SK-MEL-5 cells derived from human melanoma.
CCRF-CEM = test: Compound was tested in vitro for growth inhibition of CCRF-CEM cells derived from human leukemia.
COLO 205 = test: Compound was tested in vitro for growth inhibition of COLO 205 cells derived from human colon tumor
CAKI-1 = test: Compound was tested in vitro for growth inhibition of CAKI-1 cells derived from human renal tumor
PC-3 = test: Compound was tested in vitro for growth inhibition of PC 3 cells derived from human prostate tumor
MDA-N = test: Compound was tested in vitro for growth inhibition of MDA-N cells derived from human breast tumor
NCI-H522 = test: Compound was tested in vitro for growth inhibition of […] cells derived from human lung tumor
OVCAR-8 = test: Compound was tested in vitro for growth inhibition of OVCAR-8 cells derived from human ovarian tumor
SF-295 = test: Compound was tested in vitro for growth inhibition of SF 295 cells derived from CNS tumor; settings: Homo sapiens

Compound | GI50 (P388/ADR) [nM] | GI50 (P388) [nM] | GI50 (MCF7) [nM] | GI50 (SK-MEL-5) [nM] | GI50 (CCRF-CEM) [nM] | GI50 (COLO 205) [nM] | GI50 (PC-3) [nM] | GI50 (OVCAR-8) [nM] | GI50 (NCI/ADR-RES) [nM] | GI50 (CAKI-1) [nM] | GI50 (MDA-N) [nM] | GI50 (NCI-H522) [nM] | GI50 (SF-295) [nM]
CC(=O)O[C@H]1C(=O)[C@@]2(C)[C@H]([C@H](OC(=O)c3ccccc3)[C@]3(O)C[C@H](OC(=O)[C@H](O)[C@@H](NC(=O)c4ccccc4)c4ccccc4)C(C)=C1C3(C)C)[C@]1(OC(C)=O)CO[C@@H]1C[C@@H]2O [PACLITAXEL] | > 15000 | 16 | 1.1 | – | – | – | – | – | > 15000 | – | – | – | –
CC[C@]1(O)C[C@@H]2CN(CCc3c([nH]c4ccccc34)[C@@](C(=O)OC)(c3cc4c(cc3OC)N(C)[C@H]3[C@@](O)(C(=O)OC)[C@H](OC(C)=O)[C@]5(CC)C=CCN6CC[C@]43[C@@H]65)C2)C1 [VINBLASTINE] | 470 | 4.1 | 2.3 | – | – | – | – | – | 350 | – | – | – | –
O=S(=O)(Nc1ccc2c(c1)OCCO2)c1c(F)c(F)c(F)c(F)c1F | 340 | 140 | 430 | 20 | 51 | 19 | 62 | 91 | 410 | 63 | 40 | 26 | 54
COc1ccc(NS(=O)(=O)c2c(F)c(F)c(F)c(F)c2F)cc1 | 34 | 12 | 29 | < 10 | < 10 | < 10 | < 10 | 50 | 58 | 56 | 41 | < 10 | 11
COc1ccc(NS(=O)(=O)c2ccc(F)c(F)c2F)cc1 | – | – | – | 1000 | 600 | 1300 | 3200 | 5000 | – | 5500 | 1400 | 371 | 2700

Further lines, with some results ahead:

GI50 (P388/ADR) [nM] | GI50 (P388) [nM] | GI50 (MCF7) [nM] | GI50 (SK-MEL-5) [nM] | GI50 (CCRF-CEM) [nM] | GI50 (COLO 205) [nM] | GI50 (PC-3) [nM] | GI50 (OVCAR-8) [nM] | Compound | GI50 (NCI/ADR-RES) [nM] | GI50 (CAKI-1) [nM] | GI50 (MDA-N) [nM] | GI50 (NCI-H522) [nM] | GI50 (SF-295) [nM]
36 | 27 | 34 | 183 | 320 | 220 | 525 | 372 | CN(C)c1ccc(NS(=O)(=O)c2c(F)c(F)c(F)c(F)c2F)cc1 | 96 | 417 | 30 | 58 | 501
110 | 37 | 120 | 151 | 68 | 220 | 468 | 437 | Cc1ccc(NS(=O)(=O)c2c(F)c(F)c(F)c(F)c2F)cc1C | 320 | 479 | 123 | 49 | 479
32 | 12 | 28 | 13 | < 10 | 14 | 35 | 50 | O=S(=O)(Nc1ccc2[nH]ccc2c1)c1c(F)c(F)c(F)c(F)c1F | 115 | 72 | 21 | < 10 | 40
